Data taken from BindingDB's records for doi:10.7270/Q2RR233C (D3R/Abbott, 2020).
“And” between values parts separate entries of the source, which are not always exact repeats. Identical values can stand only once.

Molecular target: Tyrosine-protein kinase ABL1 (Homo sapiens, UniProt P00519)
Test: D3R2026
Excerpt: D3R2026

Sequence of Tyrosine-protein kinase ABL1 (P00519 whole entry): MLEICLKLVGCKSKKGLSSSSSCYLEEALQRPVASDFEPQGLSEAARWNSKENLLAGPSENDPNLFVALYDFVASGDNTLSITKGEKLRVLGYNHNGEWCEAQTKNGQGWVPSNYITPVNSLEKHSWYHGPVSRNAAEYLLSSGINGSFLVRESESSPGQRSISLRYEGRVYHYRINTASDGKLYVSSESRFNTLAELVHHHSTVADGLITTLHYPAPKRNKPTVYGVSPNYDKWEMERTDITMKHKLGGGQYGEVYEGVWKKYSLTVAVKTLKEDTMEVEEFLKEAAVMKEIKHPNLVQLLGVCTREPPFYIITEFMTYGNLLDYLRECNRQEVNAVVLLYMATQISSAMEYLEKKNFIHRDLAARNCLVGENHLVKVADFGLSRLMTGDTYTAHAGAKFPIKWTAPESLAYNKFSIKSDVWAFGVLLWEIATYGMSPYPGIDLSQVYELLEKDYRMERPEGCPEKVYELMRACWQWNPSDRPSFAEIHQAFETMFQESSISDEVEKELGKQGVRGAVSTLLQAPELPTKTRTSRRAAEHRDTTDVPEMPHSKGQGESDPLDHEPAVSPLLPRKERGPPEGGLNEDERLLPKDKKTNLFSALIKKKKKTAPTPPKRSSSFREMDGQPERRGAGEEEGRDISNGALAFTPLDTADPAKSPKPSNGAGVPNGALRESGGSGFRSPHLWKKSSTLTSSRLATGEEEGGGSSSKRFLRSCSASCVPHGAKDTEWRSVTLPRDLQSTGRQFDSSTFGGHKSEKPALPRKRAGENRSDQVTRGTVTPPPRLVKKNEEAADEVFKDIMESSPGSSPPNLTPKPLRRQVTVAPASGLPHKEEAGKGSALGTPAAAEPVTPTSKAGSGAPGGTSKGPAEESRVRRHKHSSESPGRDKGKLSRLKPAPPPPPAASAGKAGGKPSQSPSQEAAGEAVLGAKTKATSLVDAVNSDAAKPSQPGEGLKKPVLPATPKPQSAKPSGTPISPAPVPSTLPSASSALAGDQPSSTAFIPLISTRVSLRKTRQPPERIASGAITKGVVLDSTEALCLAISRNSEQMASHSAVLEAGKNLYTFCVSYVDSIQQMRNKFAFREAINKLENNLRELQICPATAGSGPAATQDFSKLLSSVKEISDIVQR

- Kd: 4.8 µM and 10 µM and 2.2 µM and 5.4 µM
Structure (SMILES): CCOC(=O)N1CCC(n2cnc(-c3ccc(F)cc3)c2-c2ccnc(N)n2)CC1 [4-[5-(2-Amino-pyrimidin-4-yl)-4-(4-fluoro-phenyl)-imidazol-1-yl]-piperidine-1-carboxylic acid ethyl ester]
